In patent US20200261605A1, “FUNCTIONALIZED LIPOSOMES FOR IMAGING MISFOLDED PROTEINS” (ALZECA BIOSCIENCES, LLC, priority 2019, published 2020):

Tests used:
[1] = target: α-Synuclein fibrils (Homo sapiens, UniProt P37840); experiment: Binding studies with α-Synuclein fibrils (fluorescence of unbound fraction); conditions: 5 μM α-Synuclein fibrils, 2 hours incubation; read-out: dissociation constant, Kd
Protocol: Different dilutions of Conjugate A liposomes or p-FTAA were added and mixed with 5 μM of α-Synuclein fibrils and incubated for 2 hours. The mixture was centrifuged at 21000 g for 5 mins. The supernatant was removed and assayed for fluorescence of p-FTAA that was unbound to the fibrils. Excitation of 405 nm and emission of 574 nm emission was used. A standard curve from known concentrations of liposomes or pFTAA was made. The bound fraction was calculated as the difference between the total pFTAA or pFTAA-liposomes that was incubated and the unbound fraction. […] A dissociation constant of 3 nM was determined for the p-FTAA molecule (FIG. 7B).

[2] = target: tau fibrils (phosphorylated tau-441 (2N4R)) (Homo sapiens, UniProt P10636); experiment: Binding studies with tau fibrils (fluorescence, no separation); conditions: 0.85 μM tau fibrils, 2 hours; Ex 360 nm, Em 535 nm
Protocol: Lyophilized tau-441 (2N4R) was dissolved in buffer containing 40 mM HEPES, 5 mM EGTA, 3 mM MgCl2, pH 7.5. Tau was phosphorylated with GSK-3b in the presence of 2 mM ATP at 30° C. for 40 hours. Tau was used at 30-75 μM concentration, and GSK-3b was used at 0.02-0.08 U/pmol of tau. SDS PAGE gel was run to confirm the phosphorylation of tau (FIG. 8).
To make fibrils, the phosphorylated tau was reacted with arachidonic acid (ARA). The p-tau was diluted in 10 mM HEPES, 1 mM EDTA, 5 mM DTT and 150 mM NaCl at pH-7.6 to final concentration of 32 μM and ARA at 37 times molar excess of tau was added. The mixture was incubated for 2 days at 37° C. for 2 days. Fresh DTT was supplemented daily. The oligomers formed were used as seeds for fibril formation. 8 μM of tau seeds were used to form fibrils with 30 μM p-tau in 10 mM HEPES, 1 mM EDTA, 5 mM DTT and 150 mM NaCl at pH-7.6. ARA was used at 37 times molar excess over p-tau monomer and incubated at 37° C. for 2 days. Fresh DTT was added every day.
Different dilutions of p-FTAA molecule were added and mixed with 0.85 μM of tau fibrils and incubated for 2 hours. The mixture was assayed as is without separation of bound and unbound fibrils. Excitation at 360 nm and emission at 535 nm was used for detection of p-FTAA binding to tau fibrils.

Sequence of tau fibrils (phosphorylated tau-441 (2N4R)) (P10636 1-441 isoform P10636-8): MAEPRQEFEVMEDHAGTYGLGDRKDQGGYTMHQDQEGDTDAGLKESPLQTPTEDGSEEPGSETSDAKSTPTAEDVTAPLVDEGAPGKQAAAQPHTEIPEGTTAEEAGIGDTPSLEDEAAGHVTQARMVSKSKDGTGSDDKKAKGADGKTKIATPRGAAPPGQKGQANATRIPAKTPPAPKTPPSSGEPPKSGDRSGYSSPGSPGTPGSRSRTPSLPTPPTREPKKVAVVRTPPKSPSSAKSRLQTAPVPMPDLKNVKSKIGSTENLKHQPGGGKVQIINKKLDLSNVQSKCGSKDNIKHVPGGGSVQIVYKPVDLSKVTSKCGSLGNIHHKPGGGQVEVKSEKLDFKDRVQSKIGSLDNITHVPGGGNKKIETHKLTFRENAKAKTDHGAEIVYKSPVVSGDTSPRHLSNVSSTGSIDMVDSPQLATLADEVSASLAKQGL

O=C(O)Cc1cc(-c2ccc(C(=O)O)s2)sc1-c1ccc(-c2sc(-c3ccc(C(=O)O)s3)cc2CC(=O)O)s1 [p-FTAA, pentameric formyl thiophene acetic acid] was tested, and the Kd [1] was 3 nM and the “fluorescence with tau fibrils in comparison to p-FTAA only” value [2] was “increase in fluorescence”.
